Source: patent US8710079B2, “Quinoline compounds and their use for treating viral infection” (National Health Research Institutes, priority 2010, dated 2014)
Read-outs that look alike come from different tables or passages of the source.

Key:
[1] = test system: Influenza A/WSN/33 (H1N1) virus; assay: In vitro anti-influenza virus assay (neutralization test), cytopathic effect on MDCK cells; assay type: cell-based; conditions: 72 h, read-out: IC50 (concentration reducing virus-induced cytopathic effect by 50%)
[2] = test system: HIV-1; assay: microbe, parasite or virus in culture; conditions: Human immunodeficiency virus 1, PBMC
Protocol: Equal amounts of wild-type and mutant viruses were used to infect 5×10^4 peripheral blood mononuclear cells (PBMC) in 1.5 mL medium containing DMSO or various concentrations of a test compound. A half-milliliter of the culture medium was collected from each culture at days 3, 5, and 7. Viral RNA was extracted from the collected culture supernatants and the viral titers (copies/mL) were determined by real-time PCR. The percentage of inhibition was calculated as [100−(VD/VC)]×100%, where VD and VC refer to the virus titers in the presence and absence of the test compound, respectively.

[3] = test system: Influenza A/TW/147/09 (H1N1); assay: Anti-influenza neutralization test, various influenza virus strains; assay type: cell-based
[4] = test system: Coxsackie B virus 3; assay: In vitro Coxsackie Virus B3 neutralization assay, cytopathic effect on RD cells
Protocol: (§1) This assay measured the ability of a test compound to inhibit the cytopathic effect induced by a picornavirus (EV71, Coxsackie Virus B3, or human rhinovirus 2) on RD cells. […] More specifically, 96-well tissue culture plates were seeded with 200 μL of RD cells at a concentration of 3×10^5 cells/mL in DMEM with 10% FBS. The plates were incubated for 24-30 h at 37° C. and were used at about 90% confluency. Virus (100 TCID50) mixed with different concentrations of a test compound was added to the cells and incubated at 37° C. for 1 h. After adsorption, the infected cell plates were overlaid with 50 μL of DMEM plus 5% FBS and 2% DMSO. The plate was wrapped in Parafilm and incubated at 37° C. for 64 h. At the end of incubation, the plates were fixed by the addition of 100 μL of 0.5% glutaraldehyde for 1 h at room temperature. After the removal of glutaraldehyde, the plates were stained with 0.1% crystal violet for 15 min at room temperature. The plates were washed and dried, and the density of the well was measured at 570 nm. The concentration required for a test compound to reduce the virus-induced cytopathic effect (CPE) by 50% relative to the virus control is expressed as IC50.

[5] = test system: Influenza A/TW/355/97 (H1N1); assay: Anti-influenza neutralization test, various influenza virus strains; assay type: cell-based
[6] = test system: Human rhinovirus 2; assay: In vitro human rhinovirus 2 neutralization assay, cytopathic effect on RD cells; conditions: Rhinovirus A
Protocol: as §1

[7] = test system: Enterovirus 71/4643/MP4; assay: In vitro EV 71 neutralization assay, cytopathic effect on RD cells; conditions: Enterovirus A
Protocol: as §1

[8] = test system: Influenza A/TW/70058/09 (H1N1); assay: Anti-influenza neutralization test, various influenza virus strains; assay type: cell-based
[9] = test system: Influenza A/TW/70066/09 (H1N1); assay: as above; assay type: cell-based
[10] = Influenza A/WSN/33 (H1N1), MDCK cells
[11] = Influenza A/WSN/33 (H1N1), MDCK cells, lower bound in nM, upper bound in μM
[12] = 72 h, read-out: Inhibition (%) Day 3
[13] = 120 h, read-out: Inhibition (%) Day 5
[14] = 168 h, read-out: Inhibition (%) Day 7

SMILES | IC50 [1, 10] [nM] | IC50 [1, 11] [nM] | also measured
Cc1c(-c2cc(C(=O)O)c3cc(Br)ccc3n2)cnn1-c1ccc(Cl)cc1Cl [Compound 27] |  |  | IC50 ([1]; MDCK): 10 to 999 nM
Cc1c(-c2cc(C(=O)O)c3cc(Br)ccc3n2)cnn1-c1cccc([N+](=O)[O-])c1 [Compound 29] | 6000 to 25000 |  | 
Cc1c(-c2cc(C(=O)O)c3cc(Br)ccc3n2)cnn1-c1c(Cl)cc(Cl)cc1Cl [Compound 42] | 1000 to 5900 |  | 
Cc1cc(Cl)ccc1-n1ncc(-c2cc(C(=O)O)c3cc(Br)ccc3n2)c1C [Compound 14] |  | 10 to 999 | inhibition at 10 µM [2, 12]: 20%; inhibition at 0.01 µM [2, 13]: 48%; inhibition at 10 µM [2, 13]: 59%; inhibition at 10 µM [2, 14]: 86%
Cc1c(-c2cc(C(=O)O)c3cc(Br)ccc3n2)noc1-c1ccccc1 [Compound 49] | 1000 to 5900 |  | 
Cc1c(-c2cc(C(=O)O)c3cc(Br)ccc3n2)cnn1-c1ccc(Br)cc1 [Compound 20] |  | 10 to 999 | 
CC(=O)N[C@H]1[C@H]([C@H](O)[C@H](O)CO)OC(C(=O)O)=C[C@@H]1N=C(N)N [Relenza, Zanamivir] |  |  | IC50 [3]: 22.5 ± 3.47 µM; IC50 [4]: > 25 µM; IC50 [5]: 1.05 ± 0.458 µM; IC50 [6]: > 25 µM; IC50 [7]: > 25 µM; IC50 [8]: 0.86 ± 0.36 µM; IC50 [9]: 0.809 ± 0.15 µM
Cc1ccc(Cl)cc1-n1ncc(-c2cc(C(=O)O)c3cc(Cl)ccc3n2)c1C [Compound 34] |  | 10 to 999 | 
Cc1cccc(-n2ncc(-c3cc(C(=O)O)c4cc(Br)ccc4n3)c2C)c1 [Compound 26] |  |  | IC50 ([1]; MDCK): 10 to 999 nM
Cc1c(-c2cc(C(=O)O)c3cc(Br)ccc3n2)cnn1-c1ccc(Cl)cc1 [Compound 12] | 1000 to 5900 |  | 
Cc1ccc(C)c(-n2ncc(-c3cc(C(=O)O)c4cc(F)ccc4n3)c2C)c1 [Compound 50] | 1000 to 5900 |  | 
Cc1cc(C(F)(F)F)cc(-n2nc(-c3cc(C(=O)O)c4cc(Br)ccc4n3)cc2C)n1 [Compound 74] | 1000 to 5900 |  | 
Cc1c(-c2ccccc2)cccc1-c1cc(C(=O)O)c2cc(Br)ccc2n1 [Compound 76] | 1000 to 5900 |  | 
Cc1cc(C)c(-n2ncc(-c3cc(C(=O)O)c4cc(Br)ccc4n3)c2C)c(C)c1 [Compound 37] | 1000 to 5900 |  | 
Cc1c(-c2cc(C(=O)O)c3cc(Cl)ccc3n2)cnn1-c1ccccc1 [Compound 4] |  | 10 to 999 | 
Cc1nc(-c2ccccc2)sc1-c1cc(C(=O)O)c2cc(Br)ccc2n1 [Compound 46] | 1000 to 5900 |  | 
NC12CC3CC(CC(C3)C1)C2 [Amantadine] |  |  | IC50 [3]: 1.47 ± 0.603 µM; IC50 [4]: > 25 µM; IC50 [5]: 12.6 ± 6.93 µM; IC50 [6]: > 25 µM; IC50 [7]: > 25 µM; IC50 [8]: 0.762 ± 0.28 µM; IC50 [9]: 0.96 ± 0.317 µM
Cc1ccccc1-n1ncc(-c2cc(C(=O)O)c3cc(Br)ccc3n2)c1C [Compound 17] |  | 10 to 999 | 
CCCc1cccc(-n2ncc(-c3cc(C(=O)O)c4cc(Br)ccc4n3)c2C)c1 [Compound 22] |  | 10 to 999 | 
Cc1c(-c2cc(C(=O)O)c3cc(Br)ccc3n2)cnn1-c1ccc(F)c(F)c1 [Compound 6] | 1000 to 5900 |  | 
Cc1ccc(C)c(-n2ncc(-c3cc(C(=O)O)c4cc(Cl)ccc4n3)c2C)c1 [Compound 33] |  | 10 to 999 | 
Cc1c(-c2cc(C(=O)O)c3cc(Br)ccc3n2)cnn1-c1ccc(F)cc1F [Compound 21] | 1000 to 5900 |  | 
Cc1c(-c2cc(C(=O)O)c3cc(Br)ccc3n2)cnn1-c1c(Cl)cccc1Cl [Compound 41] | 6000 to 25000 |  | 
Cc1cc(-c2cc(C(=O)O)c3cc(Br)ccc3n2)nn1-c1nc2ccccc2s1 [Compound 73] | 1000 to 5900 |  | 
Cc1c(-c2cc(C(=O)O)c3cc(Br)ccc3n2)cnn1-c1ccc(C(F)(F)F)cc1 [Compound 23] | 1000 to 5900 |  | 
Cc1ccc(-n2ncc(-c3cc(C(=O)O)c4cc(Br)ccc4n3)c2C)cc1 [Compound 9] |  | 10 to 999 | 
Cc1cccc(C)c1-n1ncc(-c2cc(C(=O)O)c3cc(Br)ccc3n2)c1C [Compound 36] | 1000 to 5900 |  | 
Cc1c(-c2cc(C(=O)O)c3cc(Br)ccc3n2)cnn1-c1ccc(Cl)c(Cl)c1 [Compound 8] | 1000 to 5900 |  | 

SMILES | IC50 [1, 10] [nM] | IC50 [1, 11] [nM] | also measured
Cc1ccc(C)c(-n2ncc(-c3cc(C(=O)O)c4cc(I)ccc4n3)c2C)c1 [Compound 60] |  | 10 to 999 | 
Cc1ccc(-n2ncc(-c3cc(C(=O)O)c4cc(Br)ccc4n3)c2C)c(C)c1 [Compound 5] |  | 10 to 999 | 
Cc1c(-c2cc(C(=O)O)c3cc(Br)ccc3n2)cnn1-c1ccccc1F [Compound 24] |  |  | IC50 ([1]; MDCK): 10 to 999 nM
Cc1c(-c2cc(C(=O)O)c3cc(Br)ccc3n2)cnn1-c1cccc(F)c1 [Compound 11] | 1000 to 5900 |  | 
Cc1cccc(-n2ncc(-c3cc(C(=O)O)c4cc(Br)ccc4n3)c2C)c1C [Compound 30] |  | 10 to 999 | 
Cc1c(-c2cc(C(=O)O)c3cc(Br)ccc3n2)cnn1-c1cc(Cl)ccc1Cl [Compound 39] | 6000 to 25000 |  | 
Cc1ccc(C)c(-n2ncc(-c3cc(C(=O)O)c4cc(Br)cc(C)c4n3)c2C)c1 [Compound 59] | 1000 to 5900 |  | 
Cc1c(-c2cc(C(=O)O)c3cc(Br)ccc3n2)cnn1-c1cccc(Cl)c1 [Compound 25] |  |  | IC50 ([1]; MDCK): 10 to 999 nM
CCc1ccccc1-n1ncc(-c2cc(C(=O)O)c3cc(Br)ccc3n2)c1C [Compound 38] | 1000 to 5900 |  | 
O=C(O)c1cc(-c2cc(-c3ccccc3)no2)nc2ccc(Br)cc12 [Compound 19] | 1000 to 5900 |  | 
Cc1c(-c2cc(C(=O)O)c3cc(Br)ccc3n2)ccn1-c1ccccc1 [Compound 48] | 1000 to 5900 |  | 
Cc1c(-c2cc(C(=O)O)c3cc(Br)ccc3n2)cnn1-c1cc(F)ccc1F [Compound 40] | 6000 to 25000 |  | 
O=C(O)c1cc(-c2cnn(-c3ccccc3)c2)nc2ccc(Br)cc12 [Compound 43] | 6000 to 25000 |  | 
Cc1cc(-c2cc(C(=O)O)c3cc(Br)ccc3n2)nn1-c1ccc2ccccc2n1 [Compound 75] | 1000 to 5900 |  | 
Cc1cc(C)cc(-n2ncc(-c3cc(C(=O)O)c4cc(Br)ccc4n3)c2C)c1 [Compound 15] |  | 10 to 999 | 
Cc1c(-c2cc(C(=O)O)c3cc(Br)ccc3n2)cnn1-c1ccc(F)cc1 [Compound 10] |  | 10 to 999 | 
Cc1cn([C@H]2C[C@H](N=[N+]=[N-])[C@@H](CO)O2)c(=O)[nH]c1=O [AZT, zidovudine, reference compound] |  |  | inhibition at 0.04 µM [2, 12]: 30%; inhibition at 0.04 µM [2, 13]: 60%; inhibition at 0.04 µM [2, 14]: 67%
COc1ccc(-n2ncc(-c3cc(C(=O)O)c4cc(Br)ccc4n3)c2C)cc1 [Compound 7] | 1000 to 5900 |  | 
Cc1c(-c2cc(C(=O)O)c3cc(F)ccc3n2)cnn1-c1ccccc1 [Compound 3] | 1000 to 5900 |  | 
Cc1c(-c2cc(C(=O)O)c3cc(Br)ccc3n2)cnn1-c1ccc(C(C)C)cc1 [Compound 13] |  | 10 to 999 | 
Cn1c(-c2ccccc2)ccc1-c1cc(C(=O)O)c2cc(Br)ccc2n1 [Compound 47] |  | 10 to 999 | 
COc1cccc(-n2ncc(-c3cc(C(=O)O)c4cc(Br)ccc4n3)c2C)c1 [Compound 18] | 1000 to 5900 |  | 
Cc1ccc(Cl)cc1-n1ncc(-c2cc(C(=O)O)c3cc(Br)ccc3n2)c1C [Compound 31] |  | 10 to 999 | 
Cc1c(-c2cc(C(=O)O)c3cc(Br)ccc3n2)cnn1-c1cc(Cl)cc(Cl)c1 [Compound 57] | 1000 to 5900 |  | 
Cc1c(-c2cc(C(=O)O)c3cc(Br)ccc3n2)ncn1-c1ccccc1 [Compound 51] |  | 10 to 999 | 
Cc1c(-c2cc(C(=O)O)c3cc(Br)ccc3n2)cnn1-c1ccc([N+](=O)[O-])cc1 [Compound 16] | 1000 to 5900 |  | 
Cc1ccc(C)c(-n2ncc(-c3cc(C(=O)O)c4cc(Br)cc(Br)c4n3)c2C)c1 [Compound 58] | 1000 to 5900 |  | 
